We go through two compounds from US20110039816A1, “THERAPEUTIC SUBSTANCE, PHARMACEUTICAL COMPOSITION, HELICOBACTER PYLORI GROWTH INHIBITOR AND METHOD FOR CONDUCTING ANTI-HELICOBACTER THERAPY” (priority 2007, published 2011).

This assay deals with H. pylori. As to the kind of experiment: Effect of comparator drugs and CGNC on the growth of H. pylori patient strains. Type of assay: cell-based, Helicobacter pylori. On the set-up: key to Effect on the growth of H. pylori: (+) - inhibition of growth; (−) - no inhibition of growth. Conditions: for Effect on growth of H. pylori: strains 782, 785, 786, 787. Here is the method:
The effect of the following doses of CGNC was examined: 50, 100, and 300 mg/ml. Bacteriological methods were used to conduct the study. Three doses of CGNC (50, 100 and 300 mg/ml) were used for analysis of the CGNC effect on the growth of H. pylori. Serial dilutions, of dense nutrient media containing an increasing concentration of the test substance were set up. Isolates of H. pylori inoculated on standard for this type of bacteria mediums (without CGNC) were used to control the microbial growth. The effect of the test substance was compared with the effect of the placebo (sterile saline solution—0.15 M NaCl, pH 7.0-7.2). In a comparative experiment, the effect of the antimicrobials, amoxicillin (20 μg/ml) and metronidazole (80 μg/ml), were evaluated.
Metronidazole and amoxicillin, the most common used therapeutical substances in combined anti-helicobacter therapy, were chosen as comparator-drugs. H. pylori isolated from patients (No. 782, 785, 786, 787), were used to compare the effect of CGNC (300 mg/ml), amoxicillin (20 μg/ml) and metronidazole (80 μg/ml) (Table 3). These strains were isolated from patients with chronic gastroduodenitis, gastritis associated with gastric stump, duodenal ulcer and reflux esophagitis.

Molecules are shown by their SMILES. Entries after “also recorded” stand apart in the source; their conditions may differ.

Consider `CC1(C)S[C@@H]2[C@H](NC(=O)[C@H](N)c3ccc(O)cc3)C(=O)N2[C@H]1C(=O)O` [Amoxicillin], for which the “Effect on growth of H. pylori” value (amoxicillin 20 μg/ml) is on record as “inhibited the growth; also recorded: inhibition of growth occurred”. In addition, the “Effect on the growth of H. pylori” value runs as follows: (strain 782 (CGD), Amoxicillin 20 μg/ml) “+”; (strain 785 (gastritis associated with gastric stump), Amoxicillin 20 μg/ml) “+”; (strain 786 (DU, reflux esophagitis), Amoxicillin 20 μg/ml) “+”; (strain 787 (CGD), Amoxicillin 20 μg/ml) “+”.

For `Cc1ncc([N+](=O)[O-])n1CCO` [Metronidazole], under “metronidazole 80 μg/ml”, the “Effect on growth of H. pylori” value was “did not have an inhibiting effect; also recorded: did not inhibit the growth”. For the same compound, the “Effect on the growth of H. pylori” value (strain 782 (CGD), Metronidazole 80 μg/ml) is listed as “−”; the “Effect on the growth of H. pylori” value (strain 785 (gastritis associated with gastric stump), Metronidazole 80 μg/ml) is listed as “−”; the “Effect on the growth of H. pylori” value (strain 786 (DU, reflux esophagitis), Metronidazole 80 μg/ml) is “−”; the “Effect on the growth of H. pylori” value (strain 787 (CGD), Metronidazole 80 μg/ml) is “−”.
